Laboratory results published in ChEMBL document CHEMBL1133772, “In vitro and in vivo evaluation of dihydropyrimidinone C-5 amides as potent and selective alpha(1A) receptor antagonists for the treatment of benign prostatic hyperplasia” (J Med Chem, 2000).

Legend:
[1] = Bioavailability in rat; type: ADME, organism-based; conditions: in vivo
[2] = biological target: T1, Alpha-1D adrenergic receptor (Homo sapiens, UniProt P25100); test: Evaluated for the ability to displace [125I]- HEAT from human cloned Alpha-1D adrenergic receptor stably expressed in HEK cells.; type: cell-based, HEK293
T1 sequence (P25100 whole entry): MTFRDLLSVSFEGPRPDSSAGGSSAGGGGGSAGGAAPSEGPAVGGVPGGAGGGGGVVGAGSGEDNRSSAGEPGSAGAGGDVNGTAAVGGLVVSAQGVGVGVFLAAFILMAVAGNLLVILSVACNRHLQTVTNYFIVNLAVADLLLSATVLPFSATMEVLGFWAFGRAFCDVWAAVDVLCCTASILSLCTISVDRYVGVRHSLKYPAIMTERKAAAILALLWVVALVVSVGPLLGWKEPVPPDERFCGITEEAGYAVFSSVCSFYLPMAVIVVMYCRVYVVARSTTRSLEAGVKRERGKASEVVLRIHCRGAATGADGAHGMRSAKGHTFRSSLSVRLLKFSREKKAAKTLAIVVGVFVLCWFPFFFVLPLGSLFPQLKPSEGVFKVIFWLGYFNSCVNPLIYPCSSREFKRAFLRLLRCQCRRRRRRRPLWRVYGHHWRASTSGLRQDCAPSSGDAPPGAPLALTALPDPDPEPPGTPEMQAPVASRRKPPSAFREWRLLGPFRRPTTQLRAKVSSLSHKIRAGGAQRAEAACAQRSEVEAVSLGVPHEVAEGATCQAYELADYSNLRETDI

[3] = biological target: T2, Alpha-1A adrenergic receptor (Homo sapiens, UniProt P35348); test: Evaluated for the ability to displace [125I]- HEAT from human cloned Alpha-1A adrenergic receptor stably expressed in CHO cells.; type: cell-based
T2 sequence (P35348 whole entry): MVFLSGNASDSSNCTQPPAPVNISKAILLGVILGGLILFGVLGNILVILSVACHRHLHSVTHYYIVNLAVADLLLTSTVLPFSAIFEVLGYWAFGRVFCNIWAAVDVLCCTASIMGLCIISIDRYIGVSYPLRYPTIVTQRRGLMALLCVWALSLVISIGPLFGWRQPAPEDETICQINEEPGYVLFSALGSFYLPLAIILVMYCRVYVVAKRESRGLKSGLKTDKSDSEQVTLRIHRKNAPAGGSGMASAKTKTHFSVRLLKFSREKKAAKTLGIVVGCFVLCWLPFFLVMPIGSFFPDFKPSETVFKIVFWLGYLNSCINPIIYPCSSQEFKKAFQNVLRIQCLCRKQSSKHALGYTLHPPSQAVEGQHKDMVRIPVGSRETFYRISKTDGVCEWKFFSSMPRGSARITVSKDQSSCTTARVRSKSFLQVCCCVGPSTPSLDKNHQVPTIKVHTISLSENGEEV

[4] = biological target: T3, Alpha-1B adrenergic receptor (Homo sapiens, UniProt P35368); test: Evaluated for the ability to displace [125I]- HEAT from human cloned Alpha-1B adrenergic receptor stably expressed in LM cells.; type: cell-based
T3 sequence (P35368 whole entry): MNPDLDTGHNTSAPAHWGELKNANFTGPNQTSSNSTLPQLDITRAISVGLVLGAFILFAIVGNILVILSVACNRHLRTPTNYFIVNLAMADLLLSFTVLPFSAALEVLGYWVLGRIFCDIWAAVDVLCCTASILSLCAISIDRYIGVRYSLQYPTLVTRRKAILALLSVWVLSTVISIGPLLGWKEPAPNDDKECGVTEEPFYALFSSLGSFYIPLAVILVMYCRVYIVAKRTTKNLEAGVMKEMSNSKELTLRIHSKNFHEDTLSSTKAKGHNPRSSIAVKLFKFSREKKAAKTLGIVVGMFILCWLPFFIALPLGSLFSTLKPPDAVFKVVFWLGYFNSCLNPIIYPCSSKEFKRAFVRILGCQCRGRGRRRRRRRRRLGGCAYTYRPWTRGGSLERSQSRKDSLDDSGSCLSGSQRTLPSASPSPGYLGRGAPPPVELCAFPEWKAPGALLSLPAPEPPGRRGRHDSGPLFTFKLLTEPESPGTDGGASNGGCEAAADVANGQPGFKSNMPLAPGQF

Canis familiaris [5] = organism: Canis familiaris; test: The compound was evaluated for the inhibition of phenylephrine-induced contraction in dog.; type: functional, Canis lupus familiaris
Canis familiaris [6] = organism: Canis familiaris; test: Dose effecting a 20 mmHg change in diastolic blood pressure in dog.; type: functional, Canis lupus familiaris, Artery
Rattus norvegicus [7] = organism: Rattus norvegicus; test: Evaluated for the inhibition of A61603-induced prostate contraction in rat; type: functional, Prostate gland
Rattus norvegicus [8] = organism: Rattus norvegicus; test: Duration of action with repeated challenges of A61603 agonist in rat; type: functional
[9] = t1/2 in rat; type: ADME, organism-based; conditions: in vivo
[10] = Bioavailability in dog (dose 0.5 mg/kg i.v. and 1 mg/kg p.o.); type: ADME, organism-based, Canis lupus familiaris; conditions: in vivo, po
[11] = Plasma half-life from intravenous dose in dog.; type: ADME, organism-based, Canis lupus familiaris
Canis familiaris [12] = organism: Canis familiaris; test: Compound was evaluated for the inhibition of phenylephrine-induced contraction in dog.; type: functional, Canis lupus familiaris
[13] = biological target: T1, Alpha-1D adrenergic receptor; test: Ability to displace [125I]- HEAT from human cloned Alpha-1D adrenergic receptor stably expressed in HEK cells.; type: cell-based, HEK293
[14] = biological target: T2, Alpha-1A adrenergic receptor; test: Ability to displace [125I]- HEAT from human cloned Alpha-1A adrenergic receptor stably expressed in CHO cells.; type: cell-based
[15] = The compound was evaluated for the bioavailability when dosed 0.5 mg/kg intravenously and 1 mg/kg perorally in dog.; type: ADME, organism-based, Canis lupus familiaris; conditions: in vivo, po
[16] = The compound was evaluated for plasma half-life from intravenous dose in dog.; type: ADME, organism-based, Canis lupus familiaris
Rattus norvegicus [17] = organism: Rattus norvegicus; test: Duration of action with repeated challenges of A61603 agonist, n=4, data from each time point was averaged (SEM<10%) in rat.; type: functional
Rattus norvegicus [18] = organism: Rattus norvegicus; test: Inhibition of A61603-induced contraction; n=4 and data for each concentration was averaged (SEM<10%) in rat.; type: functional
Canis familiaris [19] = organism: Canis familiaris; test: Evaluated for the inhibition of phenylephrine-induced contraction (SEM<10%) in dog.; type: functional, Canis lupus familiaris
Canis familiaris [20] = organism: Canis familiaris; test: Dose effecting a 20 mmHg change in diastolic blood pressure (SEM<10%) in dog.; type: functional, Canis lupus familiaris, Artery
Rattus norvegicus [21] = organism: Rattus norvegicus; test: Evaluated for the inhibition of A61603-induced contraction; n=4 and data for each concentration was averaged (SEM<10%) in rat.; type: functional

| SMILES | bioavailability [1] | Ki [2] | Ki [3] | Ki [4] | half-life [9] | DBP-20 (Canis familiaris [6]) | AD50 (Rattus norvegicus [7]) | Duration (Rattus norvegicus [8]) | AD50 (Canis familiaris [12]) | other results |
| --- | --- | --- | --- | --- | --- | --- | --- | --- | --- | --- |
| CC1=C(C(=O)NCCCN2CCC(c3ccc(F)cc3)CC2)[C@@H](c2ccc(F)c(F)c2)NC(=O)N1 | < 6% | – | – | 40 nM | 102 min | 143 µg/kg | 1.8 µg/kg | 0.5 h | 7 µg/kg | Ki [13]: 240 nM; Ki [14]: 0.39 nM |
| COCC1=C(C(=O)NCCCN2CCC(c3ccc(F)cc3)CC2)[C@@H](c2ccc(F)c(F)c2)NC(=O)N1 | 26% | 260 nM | – | 41 nM | 388 min | >300 µg/kg | 4.6 µg/kg | 1 h | 25 µg/kg | bioavailability [15]: 40%; half-life [16]: 466 min; Ki [14]: 0.24 nM |
| CCOc1ccccc1OCCN[C@H](C)Cc1ccc(OC)c(S(N)(=O)=O)c1 [TAMSULOSIN] | – | – | – | – | – | – | – | – | – | Duration (Rattus norvegicus [17]): 3.5 h; AD50 (Rattus norvegicus [18]): 3 µg/kg |
| COc1cc2nc(N3CCN(C(=O)C4CCCO4)CC3)nc(N)c2cc1OC (stereo not drawn) [TERAZOSIN] | – | – | – | – | – | – | – | – | – | IUP AD50 (Canis familiaris [19]): 97 µg/kg; DBP-20 (Canis familiaris [20]): 74 µg/kg; AD50 (Rattus norvegicus [21]): 52 µg/kg |

More lines, main results first:

| bioavailability [1] | Ki [2] | Ki [3] | Ki [4] | half-life [9] | SMILES | DBP-20 (Canis familiaris [6]) | AD50 (Rattus norvegicus [7]) | Duration (Rattus norvegicus [8]) | AD50 (Canis familiaris [12]) | other results |
| --- | --- | --- | --- | --- | --- | --- | --- | --- | --- | --- |
| 0% | 168 nM | 0.25 nM | 158 nM | 162 min | CC1=C(C(=O)NCCCN2CCC(c3ccccc3C#N)CC2)[C@@H](c2ccc(F)c(F)c2)NC(=O)N1 | >300 µg/kg | 3 µg/kg | <0.5 h | – | IUP AD50 (Canis familiaris [5]): 6 µg/kg |
| 15% | 340 nM | 0.12 nM | 130 nM | 132 min | CC1=C(C(=O)NCCCN2CCC(c3ccc(F)cc3C#N)CC2)[C@@H](c2ccc(F)c(F)c2)NC(=O)N1C | >300 µg/kg | 7 µg/kg | 2.5 h | 10 µg/kg | bioavailability [10]: 27%; half-life [11]: 128 min |
| 0% | 495 nM | 0.45 nM | 235 nM | 420 min | COCC1=C(C(=O)NCCCN2CCC(c3ccccn3)CC2)[C@@H](c2ccc(F)c(F)c2)NC(=O)N1 | – | 12 µg/kg | 0.25 h | – | bioavailability [10]: 48%; half-life [11]: 335 min |
| 0% | 68 nM | 0.17 nM | 24 nM | 60 min | O=C1NC=C(C(=O)NCCCN2CCC(c3ccc(F)cc3)CC2)[C@@H](c2ccc(F)c(F)c2)N1 | >300 µg/kg | 2.2 µg/kg | 0.5 h | 21 µg/kg | – |
